Structures are written as SMILES. Entries after “also recorded” stand apart in the source; their conditions may differ.

The nature of this series: Plasma concentration of metoclopramide 30 minutes post-dose, Visit 3 (single dose) and Visit 7 (steady state). It is filed as in vivo, human. As to conditions: 10 mg and 14 mg IN, Visit 3 and Visit 7, 30 minutes post-dose. As to the method:
Pharmacokinetic (PK) blood samples for the determination of metoclopramide concentration were obtained from all subjects on Visit 3, Day 0 (pre-dose and 30 minutes after dosing [single dose]) and at the Final Visit (Day 28) 30 minutes post-dose (steady state).
Pharmacokinetics: The pharmacokinetics (PK) of the study drug was evaluated in all subjects. FIG. 1 summarizes PK data (blood plasma concentration of metoclopramide in ng/mL) for both Treatment Arms (10 mg and 14 mg, intranasal) on visit 3 and visit 7. Individual data are represented by circles and the arithmetic mean and geometric mean of each group is represented by lines. (In each case, the upper line represents the arithmetic mean and the lower line represents the geometric mean.) In FIG. 2, the PK data are analyzed by gender.

For `CCN(CC)CCNC(=O)c1cc(Cl)c(N)cc1OC` [metoclopramide, -amino-5-chloro-N-(2-(diethylamino)ethyl)-2-methoxybenzamide], the “Difference in PK data (blood plasma concentration) between females and males” value was “no statistical difference; also recorded: not statistically significant”.
